From patent publication US6251944A, “Para-substituted phenylene derivatives” (G. D. Searle & Company, priority 1999, dated 2001)
Counter-ions that a name gives are not always drawn.

Legend:
[1] = biological target: T1, Human fibrinogen receptor (αIIbβ3) (Homo sapiens, UniProt P05106+P08514); assay: Purified IIb/IIIa receptor assay (solid phase receptor assay); details: inhibition of 50% of maximum binding of biotinylated vitronectin; highest concentration tested 1.0×10^-4 M
T1 construct: purified from outdated platelets; from tissue; host or cells: outdated platelets (human)
T1 sequence (P08514 32-887 limits assumed): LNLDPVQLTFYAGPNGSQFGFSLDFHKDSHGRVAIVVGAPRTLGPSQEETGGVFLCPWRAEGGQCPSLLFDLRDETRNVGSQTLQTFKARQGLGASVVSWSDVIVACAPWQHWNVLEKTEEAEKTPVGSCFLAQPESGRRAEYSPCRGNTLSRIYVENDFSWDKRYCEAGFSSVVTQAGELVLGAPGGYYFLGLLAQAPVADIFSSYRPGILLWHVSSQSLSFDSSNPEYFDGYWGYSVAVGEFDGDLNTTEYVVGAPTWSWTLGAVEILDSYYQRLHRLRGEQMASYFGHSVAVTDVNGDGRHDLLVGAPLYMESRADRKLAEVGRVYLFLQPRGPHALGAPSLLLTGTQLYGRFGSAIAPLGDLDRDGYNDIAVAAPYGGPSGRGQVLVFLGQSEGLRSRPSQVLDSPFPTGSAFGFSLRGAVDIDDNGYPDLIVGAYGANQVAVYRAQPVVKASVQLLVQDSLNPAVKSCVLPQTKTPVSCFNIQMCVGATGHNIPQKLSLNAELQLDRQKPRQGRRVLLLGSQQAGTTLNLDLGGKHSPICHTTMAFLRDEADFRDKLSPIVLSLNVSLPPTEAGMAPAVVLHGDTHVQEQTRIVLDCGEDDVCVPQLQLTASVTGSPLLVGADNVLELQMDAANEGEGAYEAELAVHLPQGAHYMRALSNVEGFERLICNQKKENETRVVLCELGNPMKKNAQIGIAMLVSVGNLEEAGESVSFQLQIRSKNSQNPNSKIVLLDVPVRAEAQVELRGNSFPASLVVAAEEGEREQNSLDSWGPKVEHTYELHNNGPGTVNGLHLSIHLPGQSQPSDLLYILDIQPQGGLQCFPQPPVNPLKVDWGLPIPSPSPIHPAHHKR
T1 sequence (P08514 891-1039 limits assumed): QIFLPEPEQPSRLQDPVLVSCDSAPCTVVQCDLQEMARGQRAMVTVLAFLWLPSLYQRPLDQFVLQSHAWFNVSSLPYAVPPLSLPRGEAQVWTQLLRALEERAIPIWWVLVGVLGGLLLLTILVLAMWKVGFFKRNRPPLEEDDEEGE
T1 sequence (P05106 27-788): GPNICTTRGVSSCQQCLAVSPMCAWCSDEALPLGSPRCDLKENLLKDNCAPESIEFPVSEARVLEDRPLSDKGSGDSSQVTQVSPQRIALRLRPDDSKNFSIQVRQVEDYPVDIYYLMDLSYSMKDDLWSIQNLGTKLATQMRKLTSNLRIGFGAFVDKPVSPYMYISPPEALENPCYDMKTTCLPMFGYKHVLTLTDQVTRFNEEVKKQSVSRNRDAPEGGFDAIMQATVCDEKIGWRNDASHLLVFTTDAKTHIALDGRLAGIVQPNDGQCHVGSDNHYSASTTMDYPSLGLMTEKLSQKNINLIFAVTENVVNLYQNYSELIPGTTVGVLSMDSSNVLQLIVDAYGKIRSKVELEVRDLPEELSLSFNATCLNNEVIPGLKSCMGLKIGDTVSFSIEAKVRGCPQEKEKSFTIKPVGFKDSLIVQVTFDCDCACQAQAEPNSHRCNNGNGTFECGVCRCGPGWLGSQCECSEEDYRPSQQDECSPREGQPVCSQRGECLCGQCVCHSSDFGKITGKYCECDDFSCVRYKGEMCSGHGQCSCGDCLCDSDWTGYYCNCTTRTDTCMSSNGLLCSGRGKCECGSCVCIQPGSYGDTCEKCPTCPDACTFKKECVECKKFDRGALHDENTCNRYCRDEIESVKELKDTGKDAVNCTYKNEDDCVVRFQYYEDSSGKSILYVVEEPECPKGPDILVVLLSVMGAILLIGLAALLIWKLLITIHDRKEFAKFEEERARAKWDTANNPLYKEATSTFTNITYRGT
Protocol: The activity of the compounds of the present invention was tested in the following assays.
Human fibrinogen receptor (αIIbβ3) was purified from outdated platelets. […] Biotinylated human vitronectin was prepared by coupling NHS-biotin from Pierce Chemical Company (Rockford, Ill.) to purified vitronectin as previously described. […] Anti-biotin antibody was obtained from Calbiochem (La Jolla, Calif.). Linbro microtiter plates were obtained from Flow Labs (McLean, Va.). ADP reagent was obtained from Sigma (St. Louis, Mo.).
Solid Phase Receptor Assays
The purified human fibrinogen receptor (αIIbβ3) was diluted from stock solutions to 1.0 μg/mL in Tris-buffered saline containing 1.0 mM Ca^++, Mg^++, and Mn^++, pH 7.4 (TBS^+++). The diluted receptor was immediately transferred to Linbro microtiter plates at 100 μL/well (100 ng receptor/well). The plates were sealed and incubated overnight at 4° C. to allow the receptor to bind to the wells. All remaining steps were at room temperature. The assay plates were emptied and 200 μL of 1% RIA grade BSA in TBS^+++ (TBS^+++ /BSA) were added to block exposed plastic surfaces. Following a 2 hour incubation, the assay plates were washed with TBS^+++ using a 96 well plate washer. Logarithmic serial dilution of the test compound and controls were made starting at a stock concentration of 2 mM and using 2 nM biotinylated vitronectin in TBS^+++ /BSA as the diluent. This premixing of labeled ligand with test (or control) ligand, and subsequent transfer of 50 μL aliquots to the assay plate was carried out with a CETUS Propette robot; the final concentration of the labeled ligand was 1 nM and the highest concentration of test compound was 1.0×10^-4 M. The competition occurred for two hours after which all wells were washed with a plate washer as before. Affinity purified horseradish peroxidase labeled goat anti-biotin antibody was diluted 1:3000 in TBS^+++ /BSA and 125 μL were added to each well. After 30 minutes, the plates were washed and incubated with […]/H2 O2 substrate in 100 mM/L citrate buffer, pH 5.0. The plate was read with a microtiter plate reader at a wavelength of 450 nm and when the maximum-binding control wells reached an absorbance of about 1.0, the final A450 were recorded for analysis. The data were analyzed using a macro written for use with the EXCEL™ spreadsheet program. The mean, standard deviation, and % CV were determined for duplicate concentrations. The mean A450 values were normalized to the mean of four maximum-binding controls (no competitor added) (B-MAX). The normalized values were subjected to a four parameter curve fit algorithm, [Robard et al., Int.

[2] = biological target: T2, Human vitronectin receptor(αvβ3) (Homo sapiens, UniProt P05106+P06756); assay: Vitronectin adhesion assay (solid phase receptor assay, αvβ3); details: inhibition of 50% of maximum binding of biotinylated vitronectin; highest concentration tested 1.0×10^-4 M; read-out: AvB3 IC50
T2 construct: purified from human placenta; from tissue; host or cells: human placenta
T2 sequence (P06756 31-889 limits assumed): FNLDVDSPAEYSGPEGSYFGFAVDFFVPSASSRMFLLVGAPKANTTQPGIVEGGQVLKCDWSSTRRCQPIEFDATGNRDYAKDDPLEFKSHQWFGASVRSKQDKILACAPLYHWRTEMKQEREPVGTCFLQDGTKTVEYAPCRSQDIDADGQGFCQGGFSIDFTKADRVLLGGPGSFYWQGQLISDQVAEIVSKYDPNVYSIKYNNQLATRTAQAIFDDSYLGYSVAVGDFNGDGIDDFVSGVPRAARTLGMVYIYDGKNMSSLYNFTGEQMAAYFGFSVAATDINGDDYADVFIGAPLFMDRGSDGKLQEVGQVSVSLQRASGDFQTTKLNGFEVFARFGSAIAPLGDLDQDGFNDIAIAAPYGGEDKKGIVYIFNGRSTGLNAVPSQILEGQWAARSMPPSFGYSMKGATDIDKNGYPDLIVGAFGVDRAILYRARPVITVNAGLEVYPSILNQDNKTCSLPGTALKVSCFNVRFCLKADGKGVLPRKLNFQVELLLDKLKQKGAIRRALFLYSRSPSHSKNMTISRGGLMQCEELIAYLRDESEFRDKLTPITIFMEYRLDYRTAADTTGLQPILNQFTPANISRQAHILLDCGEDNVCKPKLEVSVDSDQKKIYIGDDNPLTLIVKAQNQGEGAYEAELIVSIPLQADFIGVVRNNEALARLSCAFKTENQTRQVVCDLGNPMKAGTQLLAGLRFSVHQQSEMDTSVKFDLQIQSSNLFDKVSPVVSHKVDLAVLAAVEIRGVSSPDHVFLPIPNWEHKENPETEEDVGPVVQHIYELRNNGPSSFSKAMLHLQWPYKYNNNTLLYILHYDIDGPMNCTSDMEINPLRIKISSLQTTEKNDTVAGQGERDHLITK
T2 sequence (P06756 891-1048 limits assumed): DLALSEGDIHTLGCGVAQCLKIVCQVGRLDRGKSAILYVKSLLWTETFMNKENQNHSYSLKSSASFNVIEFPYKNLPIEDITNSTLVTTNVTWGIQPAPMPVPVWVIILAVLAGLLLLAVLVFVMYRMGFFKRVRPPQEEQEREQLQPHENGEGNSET
T2 sequence (P05106 27-788): as the sequence (P05106 27-788) above
Protocol: The activity of the compounds of the present invention was tested in the following assays. […] Assay buffer, OPD substrate tablets, and RIA grade BSA were obtained from Sigma (St. Louis, Mo.). Anti-biotin antibody was obtained from Calbiochem (La Jolla, Calif.). Linbro microtiter plates were obtained from Flow Labs (McLean, Va.). ADP reagent was obtained from Sigma (St. Louis, Mo.). […] The purified human vitronectin receptor (αvβ3) was diluted from stock solutions to 1.0 μg/mL in Tris-buffered saline containing 1.0 mM Ca^++, Mg^++, and Mn^++, pH 7.4 (TBS^+++). The diluted receptor was immediately transferred to Linbro microtiter plates at 100 μL/well (100 ng receptor/well). The plates were sealed and incubated overnight at 4° C. to allow the receptor to bind to the wells. All remaining steps were at room temperature. The assay plates were emptied and 200 μL of 1% RIA grade BSA in TBS^+++ (TBS^+++ /BSA) were added to block exposed plastic surfaces. Following a 2 hour incubation, the assay plates were washed with TBS^+++ using a 96 well plate washer. […] The competition occurred for two hours after which all wells were washed with a plate washer as before. […] After 30 minutes, the plates were washed and incubated with OPD/H2 O2 substrate in 100 mM/L Citrate buffer, pH 5.0. […] The data were analyzed using a macro written for use with the EXCEL™ spreadsheet program. The mean, standard deviation, and % CV were determined for duplicate concentrations. The mean A450 values were normalized to the mean of four maximum-binding controls (no competitor added)(B-MAX). The normalized values were subjected to a four parameter curve fit algorithm [Rodbard et al., Int. […] Ser.

Row | SMILES | IC50 [1] | IC50 [2]
1 | CC(C)COC(=O)NC(Cc1ccc(NC(=O)c2cc(NC(=N)N)cc(C(F)(F)F)c2)cc1)C(=O)O (centres unmarked) [Example 2, 4-[[[3-[(aminoiminomethyl)amino]-5-(trifluoromethyl)phenyl]carbonyl]amino]-N-[(2-methylpropoxy)carbonyl]phenylalanine, trifluoroacetate Salt] | 8.08 nM | 0.18 nM
2 | CCCCS(=O)(=O)NC(Cc1ccc(OCc2cccc(NC(=N)N)c2)cc1)C(=O)O (centres unmarked) [Example 11, O-[[3-[(aminoiminomethyl)amino]-phenyl]methyl]-N-(butylsulfonyl)tyrosine, trifluoroacetate Salt monohydrate] | 4 nM | 2.2 nM
3 | N=C(N)c1cccc(C(=O)Nc2ccc(CCC(=O)O)cc2)c1 [Example 20, 4-[[[3-(Aminoiminomethyl)phenyl]carbonyl]-amino]benzenepropanoic Acid] | 39900 nM | > 100000 nM
4 | CC(CC(=O)OC(C)(C)C)c1ccc(NC(=O)c2cccc(NC(=N)N)c2)cc1 (stereo not drawn) [Example 30, 1,1-dimethylethyl 4-[[[3-[(aminoiminomethyl)amino]phenyl]carbonyl]amino]-β-methylbenzenepropanoate, trifluoroacetate Salt] | 3260 nM | 6370 nM
5 | CC(=O)NC(Cc1ccc(NC(=O)c2cccc(NC(=N)N)c2)cc1)C(=O)O (centres unmarked) [Example 35, N-acetyl-4-[[[3-[(aminoiminomethyl)amino]-phenyl]carbonyl]amino]phenylalanine, trifluoroacetate Salt] | 148 nM | 2.69 nM
6 | CCOC(=O)C(Cc1ccc(NC(=O)c2cccc(NC(=N)N)c2)cc1)NC(=O)c1ccccc1 (centres unmarked) [Example 36, 4-[[[3-[(aminoiminomethyl)amino]phenyl]-carbonyl]amino]-N-(phenylcarbonyl)phenylalanine Ethyl Ester, monohydrate trifluoroacetate Salt] | 10500 nM | 1010 nM
7 | CCOC(=O)C(Cc1ccc(NC(=O)c2cccc(NC(=N)N)c2)cc1)NS(C)(=O)=O (centres unmarked) [Example 37, 4-[[[3-[(aminoiminomethyl)amino]phenyl]carbonyl]amino]-N-(methylsulfonyl)phenylalanine Ethyl Ester, monohydrate trifluoroacetate Salt] | 2380 nM | 97.8 nM
8 | CCOC(=O)NC(Cc1ccc(NC(=O)c2cccc(NC(=N)N)c2)cc1)C(=O)OCC (centres unmarked) [Example 38, 4-[[[3-[(aminoiminomethyl)amino]phenyl]-carbonyl]amino]-N-(ethoxycarbonyl)phenylalanine Ethyl Ester, trifluoroacetate Salt] | 3360 nM | 106 nM
9 | CCOC(=O)C(Cc1ccc(NC(=O)c2cccc(NC(=N)N)c2)cc1)NS(=O)(=O)c1ccccc1 (centres unmarked) [Example 40, 4-[[[3-[(aminoiminomethyl)amino]phenyl]-carbonyl]amino]-N-(phenylsulfonyl)phenylalanine Ethyl Ester, monohydrate trifluoroacetate Salt] | 748 nM | 557 nM
10 | COC(=O)[C@H](Cc1ccc(NC(=O)c2cccc(NC(=N)N)c2)cc1)NC(=O)OC(C)(C)C [Example 45, 4-[[[3-[(aminoiminomethyl)amino]phenyl]-carbonyl]amino]-N-[(1,1-dimethylethoxy)carbonyl]-L-phenylalanine, methyl Ester, trifluoroacetate Salt] | 603 nM | 39.4 nM
11 | CC(C)COC(=O)NC(Cc1ccc(NC(=O)c2cccc(NC(=N)N)c2)cc1)C(=O)O (centres unmarked) [Example 53, 4-[[[3-[(aminoiminomethyl)amino]phenyl]-carbonyl]amino]-N-[(2-methylpropoxy)carbonyl]-phenylalanine, trifluoroacetate Salt] | 15.3 nM | 0.56 nM
12 | COC(=O)NC(Cc1ccc(NC(=O)c2cccc(NC(=N)N)c2)cc1)C(=O)O (centres unmarked) [Example 54, 4-[[[3-[(aminoiminomethyl)amino]phenyl]carbonyl]amino]-N-(methoxycarbonyl)phenylalanine, trifluoroacetate Salt] | 36.5 nM | 0.77 nM
13 | N=C(N)Nc1cccc(C(=O)Nc2ccc(C(CC(=O)O)C(=O)O)cc2)c1 (centres unmarked) [Example 69, [4-[[[3-[(aminoiminomethyl)amino]-phenyl]carbonyl]amino]phenyl]butanedioicAcid, trifluoroacetate Salt] | 37 nM | 94 nM
14 | N=C(N)Nc1cccc(C(=O)Nc2ccc(C(CC(=O)O)C(=O)NCC(=O)O)cc2)c1 (stereo not drawn) [Example 73, 4-[[[3-[(aminoiminomethyl)amino]phenyl]-carbonyl]amino]-beta-[[(carboxymethyl)amino]carbonyl]-benzenepropanoic Acid, trifluoroacetate Salt] | 40 nM | 141 nM
15 | N=C(N)Nc1cccc(C(=O)Nc2ccc(CCC(=O)O)cc2O)c1 [Example 75, 4-[[[3-[(aminoiminomethyl)amino]phenyl]-carbonyl]amino]-3-hydroxybenzenepropanoic Acid, trifluoroacetate Salt] | 330 nM | 14.5 nM
16 | N=C(N)Nc1cccc(C(=O)Nc2ccc(OCC(=O)O)cc2)c1 [Example 81, [4-[[[3-[(aminoiminomethyl)amino]phenyl]-carbonyl]amino]phenoxy]acetic Acid, trifluoroacetate Salt] | 129 nM | 19.1 nM
17 | N=C(N)Nc1cccc(C(=O)Nc2ccc(S(=O)(=O)CC(=O)O)cc2)c1 [Example 83, [[4-[[[3-[(aminoiminomethyl)amino]phenyl]carbonyl]amino]phenyl]sulfonyl]acetic Acid] | 474 nM | 1900 nM
18 | CCOC(=O)C(Oc1ccc(NC(=O)c2cccc(NC(=N)N)c2)cc1)c1ccccc1 (stereo not drawn) [Example 86C, ethyl α-[4-[[[3-[(aminoiminomethyl)amino]phenyl]carbonyl]amino]phenoxy]benzeneacetate, trifluoroacetate Salt] | > 100000 nM | 56800 nM
19 | CC(C)OC(=O)NC(Cc1ccc(NC(=O)c2ccc(Cl)c(NC(=N)N)c2)cc1)C(=O)O (centres unmarked) [Example 87, 4[[[3-[(aminoiminomethyl)amino]-4-chlorophenyl]carbonyl]amino]-N-[(1-methylethoxy)carbonyl]phenylalanine] | 85.3 nM | 0.44 nM
20 | CCOC(=O)CSc1ccc(NC(=O)c2cccc(NC(=N)N)c2)cc1 [Example 90, ethyl[[4-[[(3-[(aminoiminomethyl)amino]phenyl]carbonyl]amino]phenyl]thio]acetic Acid, trifluoroacetate] | 34500 nM | 23700 nM
21 | N=C(N)Nc1cccc(C(=O)Nc2ccc(CCC(=O)O)c(CCC(=O)O)c2)c1 [Example 100, 4-[[[3-[(aminoiminomethyl)amino]phenyl]carbonyl]amino]benzene-1,2-dipropanoic Acid, trifluoroacetate Salt] | 44 nM | 6 nM
22 | CC(C)(C)CC(=O)NC(Cc1ccc(NC(=O)c2cccc(NC(=N)N)c2)cc1)C(=O)O (centres unmarked) [Example 109, 4-[[[3-[(aminoiminomethyl)amino]phenyl]carbonyl]amino]-N-(3,3-dimethyl-1-oxobutyl)phenylalanine, trifluoroacetate Salt] | 111 nM | 5 nM
